Experimental data taken from US20090011025A1, “Biotin-Amino Acid Conjugate Useful as a Hydrogelator and Hydrogel Prepared Therefrom” (POSTECH FOUNDATION, priority 2005, published 2009).

Key:
[1] = Gelation capability of gelators, stable-to-inversion of container method (minimum gelation concentration, gel stability and clarity); format: physicochemical; design: key to minimum gelation concentration (MGC): —: no gel formed; conditions: for stability of gel (time the gel persisted): in each medium; for stability of gel (time the gel lasted): aqueous media
Procedure: In order to examine the gelation capability of gelators 1 to 11, the degrees of gelation in various aqueous media were measured as follows, in accordance with the “stable-to-inversion of container” method (Menger, F. M. and Caran, K. L., J. Am. Chem. Soc. 2000, 122, 11679).
Specifically, 0.002 to 0.04 g of each gelator and 1 ml of an aqueous medium (distilled water, 0.9% aqueous NaCl solution, 0.01 M hydrochloric buffer (pH 2.0), 0.05 M phthalate buffer (pH 4.0), 0.08 M MOPSO buffer (pH 7.0) or 0.025 M sodium tetraborate buffer (pH 9.0)) were put into a sealed glass tube (5 mm i.d.), and the mixture was heated at 100° C. until a solution was obtained. The tube was then maintained at room temperature for 5 to 10 min.
Then, the minimum gelation concentration (MGC, wt %), i.e., the lowest concentration of a gelator at which it forms a hydrogel, of each gelator compound was determined, and the result is shown in Table 1.

[2] = Textures of the hydrogels/xerogels by scanning electron microscopy (SEM); format: physicochemical; conditions: gel at MGC in distilled water, freeze-dried
Procedure: The textures of the hydrogels formed by the gelators prepared in the Examples were examined as follows, employing a scanning electron microscopy (SEM).
First, gelators 1 to 11 were each dissolved in 1 ml of distilled water in an amount ranging from 0.003 to 0.02 g to reach the corresponding MGC listed in Table 1, and the mixture was heated at 100° C. to form a hydrogel. The hydrogel was frozen at −78° C., and freeze-dried for 6 hours to obtain a xerogel.

streptavidin = streptavidin (Streptomyces avidinii, UniProt P22629); assay: Influence of ligand-receptor interaction (streptavidin) on the gel state of a hydrogel, SEM; conditions: 0.002 equivalent of streptavidin, after 1 hour
Procedure: The influence of ligand-receptor interaction on the gel state of hydrogels was examined as follows.
0.002 g of gelator 9 was added to 1 ml of distilled water, and the mixture was heated at 100° C. to form a hydrogel.

[3] = cited from earlier work
[4] = pH 2 (0.01 M hydrochloric buffer)
[5] = pH 9 (0.025 M sodium tetraborate buffer)

| minimum gelation concentration (MGC) ([1]; H2O/0.9% NaCl (aq.)) | minimum gelation concentration (MGC) [1, 4] | minimum gelation concentration (MGC) ([1]; pH 4 (0.05 M phthalate buffer)) | minimum gelation concentration (MGC) ([1]; pH 7 (0.08 M MOPSO buffer)) | minimum gelation concentration (MGC) [1, 5] | melting point | clarity of gel [1] | structure type of hydrogel (xerogel SEM image) [2] | stability of gel (time the gel lasted) [1] | SMILES | stability of gel (time the gel persisted) [1] | molecules of water immobilized by one molecule of gelator ([1]; at MGC in distilled water) | gel state after addition of streptavidin (streptavidin) | solubility in organic solvents ([3]; organic solvents) | solubility in water ([3]; water) |
| --- | --- | --- | --- | --- | --- | --- | --- | --- | --- | --- | --- | --- | --- | --- |
| 0.6 wt % | 0.8 wt % | 0.8 wt % | 1.7 wt % | 3.5 wt % | 198.5 °C |  |  |  | CCCCCCC(NC(=O)CCCC[C@@H]1SC[C@@H]2NC(=O)N[C@@H]21)C(=O)O (mixture of isomers) [Gelator 11, N-biotinyl-D,L-2-aminocaprylic acid] |  |  |  |  |  |
| 1.6 wt % | 1.4 wt % | 1.8 wt % | 2.8 wt % | 3.6 wt % | 209 to 210 °C | translucent to opaque | fibrous structures |  | CC(C)C[C@H](NC(=O)CCCC[C@@H]1SC[C@@H]2NC(=O)N[C@@H]21)C(=O)O [Gelator 2, N-biotinyl-L-leucine] | about 6 months |  |  |  |  |
| 1.8 wt % | — | — | — | — | 207 °C |  |  |  | CSCC[C@H](NC(=O)CCCC[C@@H]1SC[C@@H]2NC(=O)N[C@@H]21)C(=O)O [Gelator 3, N-biotinyl-L-methionine] |  |  |  |  |  |
| 1.2 wt % | 1.0 wt % | 1.2 wt % | 2.7 wt % | 3.9 wt % | 230 to 233 °C | opaque | lamellar structures | about 1 week | CC[C@H](C)[C@H](NC(=O)CCCC[C@@H]1SC[C@@H]2NC(=O)N[C@@H]21)C(=O)O [Gelator 4, N-biotinyl-L-isoleucine] |  |  |  |  |  |
| 1.4 wt % | 1.0 wt % | 1.4 wt % | 2.7 wt % | 4.0 wt % | 215 to 216 °C | opaque | lamellar structures | about 1 week | CC(C)[C@H](NC(=O)CCCC[C@@H]1SC[C@@H]2NC(=O)N[C@@H]21)C(=O)O [Gelator 5, N-biotinyl-L-valine] |  |  |  |  |  |
| — | — | — | — | — | 259 to 260 °C |  |  |  | O=C(CCCC[C@@H]1SC[C@@H]2NC(=O)N[C@@H]21)N[C@@H](Cc1ccc(O)cc1)C(=O)O [Gelator 6, N-biotinyl-L-tyrosine] |  |  |  |  |  |
| — | — | — | — | — | 160 to 161 °C |  |  |  | O=C(CCCC[C@@H]1SC[C@@H]2NC(=O)N[C@@H]21)N[C@@H](Cc1c[nH]c2ccccc12)C(=O)O [Gelator 7, N-biotinyl-L-tryptophan] |  |  |  |  |  |
| 1.2 wt % | 0.9 wt % | 1.2 wt % | 2.5 wt % | 3.8 wt % | 255 °C | opaque | lamellar structures | about 1 week | CCC[C@H](NC(=O)CCCC[C@@H]1SC[C@@H]2NC(=O)N[C@@H]21)C(=O)O [Gelator 8, N-biotinyl-L-norvaline] |  |  |  |  |  |
| 0.8 wt % | 0.6 wt % | 1.0 wt % | 2.0 wt % | 4.0 wt % |  |  |  |  | CCCCCC(NC(=O)CCCC[C@@H]1SC[C@@H]2NC(=O)N[C@@H]21)C(=O)O (stereo partly drawn) [Gelator 10, N-biotinyl-D,L-2-aminoenantic acid] |  |  |  |  |  |
|  |  |  |  |  |  |  |  |  | O=C(O)CCCC[C@@H]1SC[C@@H]2NC(=O)N[C@@H]21 [biotin] |  |  |  | insolubility | 1.0-0.8 mmol/L |

| SMILES | minimum gelation concentration (MGC) ([1]; H2O/0.9% NaCl (aq.)) | minimum gelation concentration (MGC) [1, 4] | minimum gelation concentration (MGC) ([1]; pH 4 (0.05 M phthalate buffer)) | minimum gelation concentration (MGC) ([1]; pH 7 (0.08 M MOPSO buffer)) | minimum gelation concentration (MGC) [1, 5] | melting point | clarity of gel [1] | structure type of hydrogel (xerogel SEM image) [2] | stability of gel (time the gel lasted) [1] | stability of gel (time the gel persisted) [1] | molecules of water immobilized by one molecule of gelator ([1]; at MGC in distilled water) | gel state after addition of streptavidin (streptavidin) | solubility in organic solvents ([3]; organic solvents) | solubility in water ([3]; water) |
| --- | --- | --- | --- | --- | --- | --- | --- | --- | --- | --- | --- | --- | --- | --- |
| O=C(CCCC[C@@H]1SC[C@@H]2NC(=O)N[C@@H]21)N[C@@H](Cc1ccccc1)C(=O)O [Gelator 1, N-biotinyl-L-phenylalanine] | 2.0 wt % | 1.5 wt % | 2.0 wt % | 3.0 wt % | 4.0 wt % | 205 °C | translucent to opaque | fibrous structures |  | about 6 months |  |  |  |  |
| CCCC[C@H](NC(=O)CCCC[C@@H]1SC[C@@H]2NC(=O)N[C@@H]21)C(=O)O [Gelator 9, N-biotinyl-L-norleucine] | 0.3 wt % | 0.2 wt % | 0.5 wt % | 1.2 wt % | 1.5 wt % | 172 °C |  |  |  |  | 6,700 molecules of water | disrupted |  |  |
